# Data: PubChem BioAssay AID330 (DTP/NCI, 2004)
# “And” between values parts separate entries of the source, which are not always exact repeats. Equal values may be shown once. Toxic doses and inconclusive results are not listed. Square brackets hold non-standard residues; d marks the D form. Peptide text beside a SMILES is read from it. * marks the point of attachment. ξ: configuration not given here. Cbz = O=C(OCc1ccccc1)*; OBn = c1ccc(CO*)cc1; Bn = c1ccc(C*)cc1; ξC = NC(CS)C(=O)O
# Tested on: P388 leukemia ip, CD2F1 mice, survival T/C
# Test: NCI In Vivo Anticancer Drug Screen. Data for tumor model P388 Leukemia (intraperitoneal) in CD2F1 (CDF1) mice
# Conditions: endpoint: median survival time, higher = longer survival
# Summary of the method: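 Mice carrying the transplanted tumor received test compound or vehicle. Survival was recorded in each group, and the value is the treated-group measurement divided by that of the vehicle-treated control group.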
# [1] = dose: 50.0 mg/kg/injection, schedule: Q01DX009 (ip), vehicle: saline with Tween-80
# [2] = dose: 100.0 mg/kg/injection, schedule: Q01DX009 (ip), vehicle: saline with Tween-80
# [3] = dose: 50.0 mg/kg/injection, schedule: Q01DX005 (ip), vehicle: Klucel (hydroxypropylcellulose) (HPC)
# [4] = dose: 100.0 mg/kg/injection, schedule: Q01DX005 (ip), vehicle: Klucel (hydroxypropylcellulose) (HPC)
# [5] = dose: 200.0 mg/kg/injection, schedule: Q01DX005 (ip), vehicle: Klucel (hydroxypropylcellulose) (HPC)
# [6] = dose: 25.0 mg/kg/injection, schedule: Q01DX005 (ip), vehicle: Klucel (hydroxypropylcellulose) (HPC)
# [7] = dose: 50.0 mg/kg/injection, schedule: Q01DX009 (ip), vehicle: saline
# [8] = dose: 100.0 mg/kg/injection, schedule: Q01DX009 (ip), vehicle: saline
# [9] = dose: 200.0 mg/kg/injection, schedule: Q01DX009 (ip), vehicle: saline
# [10] = dose: 12.5 mg/kg/injection, schedule: Q01DX009 (ip), vehicle: saline
# [11] = dose: 25.0 mg/kg/injection, schedule: Q01DX009 (ip), vehicle: saline
structure (smiles),measurement,setting,value
O=C(Cc1ccccc1)NCCN1CCNCC1,T/C,"dose: 100.0 mg/kg/injection, schedule: Q01DX001 (ip), vehicle: saline with Tween-80",105 % of control
same,T/C,"dose: 200.0 mg/kg/injection, schedule: Q01DX001 (ip), vehicle: saline with Tween-80",108 % of control
same,T/C,"dose: 400.0 mg/kg/injection, schedule: Q01DX001 (ip), vehicle: saline with Tween-80",96 % of control
COc1cc2c(c(OC)c1OC)-c1ccc(SC)c(=O)cc1C(N(C)C(=O)C(F)(F)F)CC2 (stereo not drawn),T/C,"dose: 1.25 mg/kg/injection, schedule: Q01DX009 (ip), vehicle: Klucel (hydroxypropylcellulose) (HPC)",109 % of control
same,T/C,"dose: 2.5 mg/kg/injection, schedule: Q01DX009 (ip), vehicle: Klucel (hydroxypropylcellulose) (HPC)",111 % of control and 122 % of control
same,T/C,"dose: 20.0 mg/kg/injection, schedule: Q01DX009 (ip), vehicle: Klucel (hydroxypropylcellulose) (HPC)",89 % of control
OC(c1ccccc1)(C(F)(F)F)C(F)(F)F,T/C,[1],110 % of control
same,T/C,[2],92 % of control
[CH3][Sn]([CH3])([Cl])[O][Sn]([CH3])([CH3])[Cl],T/C,"dose: 1.56 mg/kg/injection, schedule: Q01DX009 (ip), vehicle: saline",115 % of control
same,T/C,"dose: 3.12 mg/kg/injection, schedule: Q01DX009 (ip), vehicle: saline",109 % of control and 118 % of control
same,T/C,"dose: 6.25 mg/kg/injection, schedule: Q01DX009 (ip), vehicle: saline",118 % of control and 123 % of control
same,T/C,"dose: 12.5 mg/kg/injection, schedule: Q04DX003 (ip), vehicle: saline",116 % of control
same,T/C,"dose: 25.0 mg/kg/injection, schedule: Q04DX003 (ip), vehicle: saline",124 % of control
same,T/C,"dose: 50.0 mg/kg/injection, schedule: Q04DX003 (ip), vehicle: saline",109 % of control
CC(c1ccc(O)cc1)c1cc2c(cc1OCCO)OCO2 (stereo not drawn),T/C,"dose: 50.0 mg/kg/injection, schedule: Q01DX005 (ip), vehicle: saline with Tween-80",94 % of control
same,T/C,"dose: 100.0 mg/kg/injection, schedule: Q01DX005 (ip), vehicle: saline with Tween-80",91 % of control
same,T/C,"dose: 200.0 mg/kg/injection, schedule: Q01DX005 (ip), vehicle: saline with Tween-80",92 % of control
CCCCNC(=O)C(CONC(=O)OC)NC(C)=O (stereo not drawn),T/C,[3],101 % of control
same,T/C,[4],97 % of control
same,T/C,[5],101 % of control
C=C1C(=O)O[C@@H]2C[C@@H](C)[C@@H]3[C@@H](OC(C)=O)[C@@H](OC(C)=O)[C@H](OC(C)=O)[C@@]3(C)C[C@H]12,T/C,"dose: 9.5 mg/kg/injection, schedule: Q01DX005 (ip), vehicle: Klucel (hydroxypropylcellulose) (HPC)",102 % of control
same,T/C,"dose: 19.0 mg/kg/injection, schedule: Q01DX005 (ip), vehicle: Klucel (hydroxypropylcellulose) (HPC)",100 % of control
same,T/C,"dose: 38.0 mg/kg/injection, schedule: Q01DX005 (ip), vehicle: Klucel (hydroxypropylcellulose) (HPC)",106 % of control
same,T/C,"dose: 76.0 mg/kg/injection, schedule: Q01DX005 (ip), vehicle: Klucel (hydroxypropylcellulose) (HPC)",97 % of control
O=C(CNC(=O)C(CSCc1ccccc1)NC(=O)OCc1ccccc1)NCC(=O)OCc1ccccc1 (stereo not drawn) (Cbz-[ξC](Bn)-Gly-Gly-OBn),T/C,"dose: 12.5 mg/kg/injection, schedule: Q01DX005 (ip), vehicle: Klucel (hydroxypropylcellulose) (HPC)",102 % of control
same,T/C,[6],95 % of control
same,T/C,[3],102 % of control
CCCCCCCCCc1ccc(OC(=O)CCC)cc1,T/C,"dose: 100.0 mg/kg/injection, schedule: Q01DX009 (ip), vehicle: Klucel (hydroxypropylcellulose) (HPC)",102 % of control
same,T/C,"dose: 200.0 mg/kg/injection, schedule: Q01DX009 (ip), vehicle: Klucel (hydroxypropylcellulose) (HPC)",97 % of control
same,T/C,"dose: 400.0 mg/kg/injection, schedule: Q01DX009 (ip), vehicle: Klucel (hydroxypropylcellulose) (HPC)",99 % of control
COc1cccc2c(NCCCCCCNc3c4ccccc4nc4c(OC)cccc34)c3ccccc3nc12,T/C,"dose: 0.62 mg/kg/injection, schedule: Q## X009 (ip), vehicle: lactic acid",123 % of control
same,T/C,"dose: 0.63 mg/kg/injection, schedule: Q01DX009 (ip), vehicle: other",102 % of control
same,T/C,"dose: 1.25 mg/kg/injection, schedule: Q01DX009 (ip), vehicle: other",122 % of control
same,T/C,"dose: 2.5 mg/kg/injection, schedule: Q## X009 (ip), vehicle: lactic acid",160 % of control
same,T/C,"dose: 5.0 mg/kg/injection, schedule: Q## X009 (ip), vehicle: lactic acid",161 % of control
same,T/C,"dose: 10.0 mg/kg/injection, schedule: Q## X009 (ip), vehicle: lactic acid",119 % of control
O=C(/C=C/C=C/c1ccccc1)CCc1ccccc1,T/C,[6],95 % of control
same,T/C,[3],101 % of control
same,T/C,[4],100 % of control
same,T/C,[5],92 % of control
CC(=O)Oc1cccnc1,T/C,"dose: 50.0 mg/kg/injection, schedule: Q01DX006 (ip), vehicle: saline",106 % of control
same,T/C,[7],100 % of control
same,T/C,"dose: 100.0 mg/kg/injection, schedule: Q01DX006 (ip), vehicle: saline",100 % of control
same,T/C,[8],96 % of control
same,T/C,"dose: 200.0 mg/kg/injection, schedule: Q01DX006 (ip), vehicle: saline",100 % of control
same,T/C,[9],95 % of control
same,T/C,"dose: 400.0 mg/kg/injection, schedule: Q01DX006 (ip), vehicle: saline",100 % of control
same,T/C,"dose: 400.0 mg/kg/injection, schedule: Q01DX009 (ip), vehicle: saline",95 % of control
same,T/C,"dose: 600.0 mg/kg/injection, schedule: Q01DX006 (ip), vehicle: saline",100 % of control
same,T/C,"dose: 600.0 mg/kg/injection, schedule: Q01DX009 (ip), vehicle: saline",94 % of control
same,T/C,"dose: 800.0 mg/kg/injection, schedule: Q01DX006 (ip), vehicle: saline",99 % of control
same,T/C,"dose: 800.0 mg/kg/injection, schedule: Q01DX009 (ip), vehicle: saline",95 % of control
OC1(c2nccc3ccccc23)CCN(CCc2ccccc2)CC1,T/C,[10],102 % of control
same,T/C,[11],97 % of control
same,T/C,[1],87 % of control
same,T/C,[7],108 % of control
CCCCCCCCCCCCCCCCCCCCN1CCOCC1,T/C,[10],102 % of control
same,T/C,[11],107 % of control
same,T/C,[1],92 % of control
same,T/C,[7],101 % of control and 97 % of control
same,T/C,[2],90 % of control
same,T/C,[8],100 % of control
same,T/C,[9],90 % of control
